Measured values published in patent publication US7192906B2, “Substituted pyrazole derivatives, production process thereof, and herbicide compositions containing the derivatives” (SDS Biotech K.K., priority 2001, dated 2007).

What was measured:
Format in all cases: in vivo
[1] = tested on: Monochoria vaginalis; assay: Test Example 3 paddy field treatment; details: Table 6, paddy field treatment, active ingredient 1 kg per hectare, 21st day after dropping, index 0-5
In short: (§1)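 Weed seeds sown in puddled paddy soil under 4 cm water, with two-leaf Koshihikari rice transplanted; 10 days later a wettable powder was applied to the water surface at 1 kg active ingredient/ha. Scored 21 days after application on a 0–5 scale (0 = <10%, 5 = ≥90% herbicidal effect or phytotoxicity).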

[2] = tested on: Echinochloa crusgalli; assay: Test Example 3 paddy field treatment; details: Table 6, paddy field treatment, active ingredient 1 kg per hectare, 21st day after dropping, index 0-5
In short: as §1

[3] = tested on: Ammannia multiflora; assay: Test Example 3 paddy field treatment; details: Table 6, paddy field treatment, active ingredient 1 kg per hectare, 21st day after dropping, index 0-5
In short: as §1

[4] = tested on: Scirpus juncoides; assay: Test Example 3 paddy field treatment; details: Table 6, paddy field treatment, active ingredient 1 kg per hectare, 21st day after dropping, index 0-5
In short: as §1

[5] = tested on: Digitaria adscendens; assay: Test Example 2 upland soil treatment; details: Table 5, upland soil treatment, index 0-5
In short: (§2)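 Pre-emergence soil application the day after sowing, active ingredient at 1 kg per hectare as diluted wettable powder, seeds covered with about 1 cm soil. Assessed 21 days after application on a 0–5 scale (5 = ≥90% herbicidal effect or phytotoxicity; 0 = <10%).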

[6] = tested on: Chenopodium album; assay: Test Example 2 upland soil treatment; details: Table 5, upland soil treatment, index 0-5
In short: as §2

[7] = tested on: Stellaria media; assay: Test Example 2 upland soil treatment; details: Table 5, upland soil treatment, index 0-5
In short: as §2

[8] = tested on: Setaria viridis; assay: Test Example 2 upland soil treatment; details: Table 5, upland soil treatment, index 0-5
In short: as §2

[9] = tested on: Rice (Oryza sativa); assay: Test Example 3 paddy field treatment, crop phytotoxicity; details: Table 6, paddy field treatment, transplanted rice, active ingredient 1 kg per hectare, 21st day after dropping, index 0-5
In short: as §1

[10] = tested on: wheat (Triticum aestivum); assay: Test Example 2 upland soil treatment, crop phytotoxicity; details: Table 5, upland soil treatment, index 0-5
In short: as §2

[11] = tested on: soybean (Glycine max); assay: as above; details: Table 5, upland soil treatment, index 0-5
In short: as §2

[12] = tested on: wheat (Triticum aestivum); assay: Test Example 1 upland field foliage treatment, crop phytotoxicity; details: Table 4, upland field foliage treatment, index 0-5
In short: (§3)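 Post-emergence foliar spray of water-diluted wettable powder at 1 kg active ingredient per hectare, applied 14 days after sowing in upland soil. Weed control or crop phytotoxicity rated 21 days later on a 0–5 scale (5: ≥90%, 0: <10%).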

[13] = tested on: soybean (Glycine max); assay: as above; details: Table 4, upland field foliage treatment, index 0-5
In short: as §3

[14] = tested on: Digitaria adscendens; assay: Test Example 1 upland field foliage treatment; details: Table 4, upland field foliage treatment, index 0-5
In short: as §3

[15] = tested on: Chenopodium album; assay: Test Example 1 upland field foliage treatment; details: Table 4, upland field foliage treatment, index 0-5
In short: as §3

[16] = tested on: Stellaria media; assay: Test Example 1 upland field foliage treatment; details: Table 4, upland field foliage treatment, index 0-5
In short: as §3

[17] = tested on: Setaria viridis; assay: Test Example 1 upland field foliage treatment; details: Table 4, upland field foliage treatment, index 0-5
In short: as §3

## CON=C(Cn1cc(C)c(-c2ccccc2)n1)C(=O)N1CCSCC1 [Compound 122]
[1]
  Herbicidal activity MV: 4 (herbicidal effect of not less than 70% and less than 90%, or phytotoxicity of 70% or more and less than 90%)
[2]
  Herbicidal activity EC: 4 (herbicidal effect of not less than 70% and less than 90%, or phytotoxicity of 70% or more and less than 90%)
[3]
  Herbicidal activity AM: 4 (herbicidal effect of not less than 70% and less than 90%, or phytotoxicity of 70% or more and less than 90%)
[4]
  Herbicidal activity SJ: 3 (herbicidal effect of not less than 50% and less than 70%, or phytotoxicity of 50% or more and less than 70%)
[5]
  Herbicidal activity DA: Digitaria adscendens: 3 (herbicidal effect of not less than 50% and less than 70%, or phytotoxicity of 50% or more and less than 70%)
[6]
  Herbicidal activity CA: Chenopodium album: 4 (herbicidal effect of not less than 70% and less than 90%, or phytotoxicity of 70% or more and less than 90%)
[7]
  Herbicidal activity SM: Stellaria media: 4 (herbicidal effect of not less than 70% and less than 90%, or phytotoxicity of 70% or more and less than 90%)
[8]
  Herbicidal activity SV: Setaria viridis: 3 (herbicidal effect of not less than 50% and less than 70%, or phytotoxicity of 50% or more and less than 70%)
[9]
  Herbicidal activity (phytotoxicity) OS: 0 (herbicidal effect of not less than 0% and less than 10%, or phytotoxicity of 0% or more and less than 10%)
[10]
  Herbicidal activity (phytotoxicity) TA: Wheat (Triticum aestivum): 0 (herbicidal effect of not less than 0% and less than 10%, or phytotoxicity of 0% or more and less than 10%)
[11]
  Herbicidal activity (phytotoxicity) GM: Soybean (Glycine max): 0 (herbicidal effect of not less than 0% and less than 10%, or phytotoxicity of 0% or more and less than 10%)
[12]
  Herbicidal activity (phytotoxicity) TA: Wheat (Triticum aestivum): 0 (herbicidal effect of not less than 0% and less than 10%, or phytotoxicity of 0% or more and less than 10%)
[13]
  Herbicidal activity (phytotoxicity) GM: Soybean (Glycine max): 0 (herbicidal effect of not less than 0% and less than 10%, or phytotoxicity of 0% or more and less than 10%)
[14]
  Herbicidal activity DA: Digitaria adscendens: 4 (herbicidal effect of not less than 70% and less than 90%, or phytotoxicity of 70% or more and less than 90%)
[15]
  Herbicidal activity CA: Chenopodium album: 4 (herbicidal effect of not less than 70% and less than 90%, or phytotoxicity of 70% or more and less than 90%)
[16]
  Herbicidal activity SM: Stellaria media: 4 (herbicidal effect of not less than 70% and less than 90%, or phytotoxicity of 70% or more and less than 90%)
[17]
  Herbicidal activity SV: Setaria viridis: 4 (herbicidal effect of not less than 70% and less than 90%, or phytotoxicity of 70% or more and less than 90%)
